Laboratory results taken from patent US11053204B2, “Pyrimidinyloxy benzene derivatives as herbicides” (FMC Corporation, priority 2015, dated 2021).

Columns and labels:
Type in all cases: in vivo
[1] = tested on: ducksalad (Heteranthera limosa); assay: Test B flooded paddy test, plant response rating; conditions: 250 g ai/ha; Flood; scale of 0 to 100 where 0 is no effect and 100 is complete control; 13 to 15 days
In short: (§1)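 Under a constant 3 cm flood, test compounds went directly into the paddy water. Following 13 to 15 days of greenhouse growth, treated species and controls were compared by eye.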

rice (Oryza sativa) = assay: Test B flooded paddy test, plant response rating; conditions: 250 g ai/ha; Flood; scale of 0 to 100 where 0 is no effect and 100 is complete control; 13 to 15 days
In short: as §1

[2] = tested on: sedge, umbrella (small-flower umbrella sedge, Cyperus difformis); assay: Test B flooded paddy test, plant response rating; conditions: 250 g ai/ha; Flood; scale of 0 to 100 where 0 is no effect and 100 is complete control; 13 to 15 days
In short: as §1

[3] = tested on: blackgrass (Alopecurus myosuroides); assay: Test C preemergence, plant response rating; conditions: Preemergence
In short: (§2)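 Both timings shared one formulation, a non-phytotoxic solvent mixture with surfactant, and a greenhouse period of 13 to 15 d. Preemergence used seeded loam/sand or silt loam soil, postemergence used 2 to 18 cm plants; visual ratings ran from 0 (no effect) to 100 (complete control).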

corn (Zea mays) = assay: Test C preemergence, plant response rating; conditions: Preemergence
In short: as §2

[4] = tested on: crabgrass, large (large crabgrass, Digitaria sanguinalis); assay: Test C preemergence, plant response rating; conditions: Preemergence
In short: as §2

[5] = tested on: foxtail, giant (giant foxtail, Setaria faberii); assay: Test C preemergence, plant response rating; conditions: Preemergence
In short: as §2

[6] = tested on: lambsquarters (Chenopodium album); assay: Test C preemergence, plant response rating; conditions: Preemergence
In short: as §2

[7] = tested on: morningglory (Ipomoea coccinea); assay: Test C preemergence, plant response rating; conditions: Preemergence
In short: as §2

[8] = tested on: nutsedge, yellow (yellow nutsedge, Cyperus esculentus); assay: Test C preemergence, plant response rating; conditions: Preemergence
In short: as §2

[9] = tested on: oilseed rape (Brassica napus); assay: Test C preemergence, plant response rating; conditions: Preemergence
In short: as §2

[10] = tested on: ragweed (common ragweed, Ambrosia elatior); assay: Test C preemergence, plant response rating; conditions: Preemergence
In short: as §2

[11] = tested on: ryegrass, Italian (Italian ryegrass, Lolium multiflorum); assay: Test C preemergence, plant response rating; conditions: Preemergence
In short: as §2

soybean (Glycine max) = assay: Test C preemergence, plant response rating; conditions: Preemergence
In short: as §2

[12] = tested on: velvetleaf (Abutilon theophrasti); assay: Test C preemergence, plant response rating; conditions: Preemergence
In short: as §2

[13] = tested on: waterhemp (common waterhemp, Amaranthus rudis); assay: Test C preemergence, plant response rating; conditions: Preemergence
In short: as §2

[14] = tested on: wheat (winter wheat, Triticum aestivum); assay: Test C preemergence, plant response rating; conditions: Preemergence
In short: as §2

[15] = tested on: surinam grass (Brachiaria decumbens); assay: Test C preemergence, plant response rating
[16] = tested on: wild poinsettia (Euphorbia heterophylla); assay: Test C preemergence, plant response rating
[17] = tested on: oat, wild (wild oat Avena fatua); assay: Test C preemergence, plant response rating

O=C(CCCC(F)(F)F)c1c(Oc2ncc(Cl)cn2)cccc1C(F)(F)F [Compound 125]
Plant response rating, Ducksalad [1]: 70
Plant response rating, Rice (rice (Oryza sativa)): 35
Plant response rating, Sedge, Umbrella [2]: 90
Plant response rating, Blackgrass ([3]; 125 g ai/ha, scale of 0 to 100): 90
Plant response rating, Blackgrass ([3]; 16 g ai/ha, scale 0 to 100): 5
Plant response rating, Blackgrass ([3]; 31 g ai/ha, scale 0 to 100): 60
Plant response rating, Blackgrass ([3]; 62 g ai/ha, scale 0 to 100): 60
Plant response rating, Corn (corn (Zea mays); 125 g ai/ha, scale of 0 to 100): 5
Plant response rating, Corn (corn (Zea mays); 16 g ai/ha, scale 0 to 100): 0
Plant response rating, Corn (corn (Zea mays); 31 g ai/ha, scale 0 to 100): 0
Plant response rating, Corn (corn (Zea mays); 62 g ai/ha, scale 0 to 100): 5
Plant response rating, Crabgrass, Large ([4]; 125 g ai/ha, scale of 0 to 100): 100
Plant response rating, Crabgrass, Large ([4]; 16 g ai/ha, scale 0 to 100): 35
Plant response rating, Crabgrass, Large ([4]; 31 g ai/ha, scale 0 to 100): 98
Plant response rating, Crabgrass, Large ([4]; 62 g ai/ha, scale 0 to 100): 100
Plant response rating, Foxtail, Giant ([5]; 125 g ai/ha, scale of 0 to 100): 100
Plant response rating, Foxtail, Giant ([5]; 31 g ai/ha, scale 0 to 100): 85
Plant response rating, Foxtail, Giant ([5]; 62 g ai/ha, scale 0 to 100): 98
Plant response rating, Lambsquarters ([6]; 125 g ai/ha, scale of 0 to 100): 95
Plant response rating, Lambsquarters ([6]; 31 g ai/ha, scale 0 to 100): 30
Plant response rating, Lambsquarters ([6]; 62 g ai/ha, scale 0 to 100): 60
Plant response rating, Morningglory ([7]; 125 g ai/ha, scale of 0 to 100): 50
Plant response rating, Morningglory ([7]; 31 g ai/ha, scale 0 to 100): 10
Plant response rating, Morningglory ([7]; 62 g ai/ha, scale 0 to 100): 10
Plant response rating, Nutsedge, Yellow ([8]; 125 g ai/ha, scale of 0 to 100): 5
Plant response rating, Nutsedge, Yellow ([8]; 31 g ai/ha, scale 0 to 100): 0
Plant response rating, Nutsedge, Yellow ([8]; 62 g ai/ha, scale 0 to 100): 0
Plant response rating, Oilseed Rape ([9]; 125 g ai/ha, scale of 0 to 100): 80
Plant response rating, Oilseed Rape ([9]; 31 g ai/ha, scale 0 to 100): 5
Plant response rating, Oilseed Rape ([9]; 62 g ai/ha, scale 0 to 100): 50
Plant response rating, Ragweed ([10]; 125 g ai/ha, scale of 0 to 100): 35
Plant response rating, Ragweed ([10]; 31 g ai/ha, scale 0 to 100): 10
Plant response rating, Ragweed ([10]; 62 g ai/ha, scale 0 to 100): 5
Plant response rating, Ryegrass, Italian ([11]; 125 g ai/ha, scale of 0 to 100): 85
Plant response rating, Ryegrass, Italian ([11]; 31 g ai/ha, scale 0 to 100): 30
Plant response rating, Ryegrass, Italian ([11]; 62 g ai/ha, scale 0 to 100): 40
Plant response rating, Soybean (soybean (Glycine max); 125 g ai/ha, scale of 0 to 100): 20
Plant response rating, Soybean (soybean (Glycine max); 31 g ai/ha, scale 0 to 100): 0
Plant response rating, Soybean (soybean (Glycine max); 62 g ai/ha, scale 0 to 100): 0
Plant response rating, Velvetleaf ([12]; 125 g ai/ha, scale of 0 to 100): 65
Plant response rating, Velvetleaf ([12]; 31 g ai/ha, scale 0 to 100): 5
Plant response rating, Velvetleaf ([12]; 62 g ai/ha, scale 0 to 100): 60
Plant response rating, Waterhemp ([13]; 125 g ai/ha, scale of 0 to 100): 100
Plant response rating, Waterhemp ([13]; 31 g ai/ha, scale 0 to 100): 100
Plant response rating, Waterhemp ([13]; 62 g ai/ha, scale 0 to 100): 100
Plant response rating, Wheat ([14]; 125 g ai/ha, scale of 0 to 100): 5
Plant response rating, Wheat ([14]; 31 g ai/ha, scale 0 to 100): 0
Plant response rating, Wheat ([14]; 62 g ai/ha, scale 0 to 100): 0
Plant response rating, Surinam Grass ([15]; 31 g ai/ha, scale 0 to 100): 20
Plant response rating, Surinam Grass ([15]; 62 g ai/ha, scale 0 to 100): 40
Plant response rating, Surinam Grass ([15]; 125 g ai/ha, scale of 0 to 100): 65
Plant response rating, Poinsettia, Wild ([16]; 31 g ai/ha, scale 0 to 100): 0
Plant response rating, Poinsettia, Wild ([16]; 62 g ai/ha, scale 0 to 100): 25
Plant response rating, Poinsettia, Wild ([16]; 125 g ai/ha, scale of 0 to 100): 30
Plant response rating, Oat, Wild ([17]; 31 g ai/ha, scale 0 to 100): 0
Plant response rating, Oat, Wild ([17]; 62 g ai/ha, scale 0 to 100): 10
Plant response rating, Oat, Wild ([17]; 125 g ai/ha, scale of 0 to 100): 55
